From patent US9073895B2 (Boehringer Ingelheim International GmbH, priority 2010, dated 2015) come the findings set out here.

Experiment [1] addresses T1, recombinant human FLAP protein (Homo sapiens, UniProt P20292).
T1 construct: made in house; host or cells: Sf9 insect cells (membrane fraction, 100,000 x g pellet)
T1 sequence (P20292 1-161): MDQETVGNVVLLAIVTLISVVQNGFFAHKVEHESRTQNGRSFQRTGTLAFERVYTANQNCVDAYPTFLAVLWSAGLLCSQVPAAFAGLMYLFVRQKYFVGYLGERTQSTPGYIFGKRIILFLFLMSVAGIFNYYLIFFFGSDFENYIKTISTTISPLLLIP
Kind of experiment: FLAP binding assay (SPA, displacement of [125I]L-691,831). Conditions: membranes of sf9 cells expressing human FLAP, [125I]L-691,831 probe; read-out: hFLAP binding IC50. Here is the method: Compounds are assessed for the ability to bind to FLAP in a binding assay that measures compound-specific displacement of an iodinated (^125I) FLAP inhibitor via a Scintillation Proximity Assay format (adapted from S. Charleson et al., Mol. Pharmacol., 1992, 41, 873-879).
Cell pellets produced from sf9 insect cells expressing recombinant human FLAP protein are resuspended in buffer A [15 mM Tris-HCl (pH 7.5), 2 mM MgCl2, 0.3 mM EDTA, 1 mM PMSF]. The cells are lysed with a Dounce homogenizer and the material is centrifuged at 10,000×g for 10 minutes. The supernatant is then collected and centrifuged at 100,000×g for 60 minutes. To prepare membrane protein for an assay, an aliquot of the 100,000×g pellet is resuspended in 1 ml of buffer A, Dounce homogenized, and finally subjected to polytron mixing (30 seconds). Membrane protein (25 μl, 5 μg) is mixed with WGA SPA beads (Amersham) and stirred for 1 h. To an assay plate (Perkin Elmer FlexiPlate) is added 25 μl of test compound prepared in Binding buffer [100 mM Tris (pH 7.5), 140 mM NaCl, 5% glycerol, 2 mM EDTA, 0.5 mM TCEP, 0.05% Tween 20], 25 μl of [^125I]L-691,831 (an iodinated analog of MK-591, Charleson et al. Mol. Pharmacol., 41, 873-879, 1992) and finally 50 μl of the bead/protein mixture. (final concentrations: beads, 200 μg/well; protein, 5μg/well; [^125I] probe, 0 08 nM/well(17 nCi/well). The plates are shaken for 2 h before reading on a Microbeta plate reader. Non-specific binding is determined by the addition of 10 μM cold L-691,831 compound.

In experiment [2] the test system is synthesis of LTB4 in human whole blood. Kind of experiment: Human whole blood LTB4 production inhibition assay. It counts as cell-based. Conditions: heparinized human whole blood, calcimycin 20 μM, plasma LTB4; read-out: HuWB IC50. The protocol:
Compounds are additionally tested in a human whole blood assay to determine their ability to inhibit the synthesis of LTB4 in a cellular system. Compounds are combined with heparinized human whole blood and incubated for 15 minutes at 37° C. Calcimycin (20 μM final, prepared in phosphate-buffered saline, pH 7.4) is then added and the mixture is incubated for another 30 minutes at 37° C. The samples are centrifuged for 5 min at low speed (1500×g) and the plasma layer is removed. Plasma LTB4 concentrations are then measured using an antibody-based homogenous time-resolved fluorescence method (CisBio, Bedford, Mass.).

The structures appear in SMILES notation.

Usually IC50 stands for the point on the concentration scale where inhibition reaches its midpoint.

For the compound `Nc1ncc(-c2ccc(C3(C(=O)Nc4ccc(Oc5ccccc5)cc4)CCOCC3)cc2)cn1` [Example 1, 4-[4-(2-aminopyrimidin-5-yl)phenyl]-N-(4-phenoxyphenyl)tetrahydro-2H-pyran-4-carboxamide], the IC50 was 16 nM in experiment [1] and 461 nM in experiment [2].

As for `COc1ccc(NC(=O)C2(c3ccc(-c4cnc(N)nc4)cc3)CCOCC2)cn1` [Example 2, 4-[4-(2-aminopyrimidin-5-yl)phenyl]-N-(6-methoxypyridin-3-yl)tetrahydro-2H-pyran-4-carboxamide], the values for the IC50 in experiment [1] and in experiment [2] were 210 nM and 1370 nM, respectively.

As for `N#Cc1ccc(NC(=O)C2(c3ccc(-c4cnc(N)nc4)cc3)CCOCC2)cc1Cl` [Example 3, 4-[4-(2-aminopyrimidin-5-yl)phenyl]-N-(3-chloro-4-cyanophenyl)tetrahydro-2H-pyran-4-carboxamide], the figures for the concentration for half-maximal inhibition (IC50) in experiment [1] and in experiment [2] were 11.2 nM and 328 nM, respectively.

As to `Cc1nnnn1-c1ccc(NC(=O)C2(c3ccc(-c4cnc(N)nc4)cc3)CCOCC2)cc1` [Example 4, 4-[4-(2-aminopyrimidin-5-yl)phenyl]-N-[4-(5-methyl-1H-tetrazol-1-yl)phenyl]tetrahydro-2H-pyran-4-carboxamide], the IC50 in experiment [1] came to 38.5 nM; in experiment [2] it was 808 nM.

Regarding `Nc1ncc(-c2ccc(C3(C(=O)Nc4ccc(C5CCCCC5)cc4)CCOCC3)cc2)cn1` [Example 5, 4-[4-(2-aminopyrimidin-5-yl)phenyl]-N-(4-cyclohexylphenyl)tetrahydro-2H-pyran-4-carboxamide], the IC50 in experiment [1] was 101 nM; in experiment [2], 2970 nM.

For the compound `COc1ccc2nc(NC(=O)C3(c4ccc(-c5cnc(N)nc5)cc4)CCOCC3)sc2c1` [Example 7, 4-[4-(2-aminopyrimidin-5-yl)phenyl]-N-(6-methoxy-1,3-benzothiazol-2-yl)tetrahydro-2H-pyran-4-carboxamide], the IC50 in experiment [1] worked out at 10.7 nM; in experiment [2], 2660 nM.

In the case of `Cc1ccc2nc(NC(=O)C3(c4ccc(-c5cnc(N)nc5)cc4)CCOCC3)sc2c1` [Example 8, 4-[4-(2-aminopyrimidin-5-yl)phenyl]-N-(6-methyl-1,3-benzothiazol-2-yl)tetrahydro-2H-pyran-4-carboxamide], the IC50 in experiment [1] was 25 nM; in experiment [2], 3560 nM.

Consider `Nc1ncc(-c2ccc(C3(C(=O)Nc4cnc5ccccc5c4)CCOCC3)cc2)cn1` [Example 11, 4-[4-(2-aminopyrimidin-5-yl)phenyl]-N-(quinolin-3-yl)tetrahydro-2H-pyran-4-carboxamide], for which the IC50 in experiment [1] was 21.9 nM; in experiment [2], more than 3000 nM.

Regarding `Nc1ncc(-c2ccc(C3(C(=O)Nc4ccc5c(c4)OCCO5)CCOCC3)cc2)cn1` [Example 12, 4-[4-(2-aminopyrimidin-5-yl)phenyl]-N-(2,3-dihydro-1,4-benzodioxin-6-yl)tetrahydro-2H-pyran-4-carboxamide], the IC50 in experiment [1] was 68 nM; in experiment [2] it was 2220 nM.

On to `Nc1ncc(-c2ccc(C3(C(=O)Nc4ccc(Cl)c(Cl)c4)CCOCC3)cc2)cn1` [Example 13, 4-[4-(2-aminopyrimidin-5-yl)phenyl]-N-(3,4-dichlorophenyl)tetrahydro-2H-pyran-4-carboxamide], for which the figures for the IC50 in experiment [1] and in experiment [2] were 16.7 nM and not below 3000 nM, respectively.

Regarding `COc1ccc(NC(=O)C2(c3ccc(-c4cnc(N)nc4)cc3)CCOCC2)cc1Cl` [Example 14, 4-[4-(2-aminopyrimidin-5-yl)phenyl]-N-(3-chloro-4-methoxyphenyl)tetrahydro-2H-pyran-4-carboxamide], the IC50 in experiment [1] was found to be 8.95 nM; in experiment [2] it was 2250 nM.

Turning to `Nc1ncc(-c2ccc(C3(C(=O)Nc4cc(Cl)cc(Cl)c4)CCOCC3)cc2)cn1` [Example 15, 4-[4-(2-aminopyrimidin-5-yl)phenyl]-N-(3,5-dichlorophenyl)tetrahydro-2H-pyran-4-carboxamide], the values for the IC50 in experiment [1] and in experiment [2] were 23.5 nM and more than 3000 nM, respectively.

With `Nc1ncc(-c2ccc(C3(C(=O)Nc4ccc(-c5ccccc5)cc4)CCOCC3)cc2)cn1` [Example 16, 4-[4-(2-aminopyrimidin-5-yl)phenyl]-N-(biphenyl-4-yl)tetrahydro-2H-pyran-4-carboxamide], the IC50 in experiment [1] stood at 10.7 nM; in experiment [2] it was 636 nM.

On to `Nc1ncc(-c2ccc(C3(C(=O)Nc4ccc5ncsc5c4)CCOCC3)cc2)cn1` [Example 18, 4-[4-(2-aminopyrimidin-5-yl)phenyl]-N-(1,3-benzothiazol-6-yl)tetrahydro-2H-pyran-4-carboxamide], for which the IC50 in experiment [1] came out at 16 nM; in experiment [2], 1700 nM.

For the compound `Nc1ncc(-c2ccc(C3(C(=O)Nc4nc(-c5ccccc5)cs4)CCOCC3)cc2)cn1` [Example 20, 4-[4-(2-aminopyrimidin-5-yl)phenyl]-N-(4-phenyl-1,3-thiazol-2-yl)tetrahydro-2H-pyran-4-carboxamide], the IC50 in experiment [1] was determined as 16 nM; in experiment [2], 1340 nM.

Regarding `Nc1ncc(-c2ccc(C3(C(=O)Nc4cccc(OC(F)(F)F)c4)CCOCC3)cc2)cn1` [Example 21], the IC50 in experiment [1] is 12 nM; in experiment [2], more than 3000 nM.

On to `Nc1ncc(-c2ccc(C3(C(=O)Nc4cccc(Oc5ccccc5)c4)CCOCC3)cc2)cn1` [Example 22, 4-[4-(2-aminopyrimidin-5-yl)phenyl]-N-(3-phenoxyphenyl)tetrahydro-2H-pyran-4-carboxamide], for which the IC50 in experiment [1] is 60.5 nM; in experiment [2], more than 3000 nM.

For the compound `Nc1ncc(-c2ccc(C3(C(=O)Nc4ccc(C(F)(F)F)cn4)CCOCC3)cc2)cn1` [Example 23, 4-[4-(2-aminopyrimidin-5-yl)phenyl]-N-[5-(trifluoromethyl)pyridin-2-yl]tetrahydro-2H-pyran-4-carboxamide], the IC50 in experiment [1] was 59.7 nM; in experiment [2], more than 3000 nM.

For the compound `Nc1ncc(-c2ccc(C3(C(=O)Nc4cccc(-c5ccccc5)c4)CCOCC3)cc2)cn1` [Example 24, 4-[4-(2-aminopyrimidin-5-yl)phenyl]-N-(biphenyl-3-yl)tetrahydro-2H-pyran-4-carboxamide], the IC50 was 95 nM in experiment [1] and more than 3000 nM in experiment [2].

On to `Nc1ncc(-c2ccc(C3(C(=O)Nc4ccc(-c5csnn5)cc4)CCOCC3)cc2)cn1` [Example 25, 4-[4-(2-aminopyrimidin-5-yl)phenyl]-N-[4-(1,2,3-thiadiazol-4-yl)phenyl]tetrahydro-2H-pyran-4-carboxamide], for which the IC50 in experiment [1] came to 8.65 nM; in experiment [2], 501 nM.

Take `Nc1ncc(-c2ccc(C3(C(=O)Nc4cccc(-c5cnco5)c4)CCOCC3)cc2)cn1` [Example 26, 4-[4-(2-aminopyrimidin-5-yl)phenyl]-N-[3-(1,3-oxazol-5-yl)phenyl]tetrahydro-2H-pyran-4-carboxamide]: the IC50 was 26 nM in experiment [1] and more than 3000 nM in experiment [2].

Turning to `Nc1ncc(-c2ccc(C3(C(=O)Nc4ccc(-c5cnco5)cc4)CCOCC3)cc2)cn1` [Example 27, 4-[4-(2-aminopyrimidin-5-yl)phenyl]-N-[4-(1,3-oxazol-5-yl)phenyl]tetrahydro-2H-pyran-4-carboxamide], the IC50 was determined as 5.5 nM in experiment [1] and 207 nM in experiment [2].

As for `Nc1ncc(-c2ccc(C3(C(=O)Nc4ccc(N5CCOCC5)cc4)CCC3)cc2)cn1` [Example 246, 1-[4-(2-aminopyrimidin-5-yl)phenyl]-N-[4-(morpholin-4-yl)phenyl]cyclobutanecarboxamide], in experiment [1], the IC50 worked out at 34 nM.

On to `Cc1nc(-c2ccc(NC(=O)C(c3ccc(-c4cnc(N)nc4)cc3)C3CCCC3)nc2)cs1` (stereo not drawn) [Example 248, 2-[4-(2-aminopyrimidin-5-yl)phenyl]-2-cyclopentyl-N-[5-(2-methyl-1,3-thiazol-4-yl)pyridin-2-yl]acetamide], for which the IC50 in experiment [1] amounted to 240 nM.

As for `Cc1ccc(NC(=O)C2(c3ccc(-c4cnc(N)nc4)cc3)CCC2)cn1` [Example 249, 1-[4-(2-aminopyrimidin-5-yl)phenyl]-N-(6-methylpyridin-3-yl)cyclobutanecarboxamide], the IC50 in experiment [1] was found to be 22.5 nM.

Turning to `Cc1nc(-c2ccc(NC(=O)C3(c4ccc(-c5cnc(N)nc5)cc4)CC3)nc2)cs1` [Example 251, 1-[4-(2-aminopyrimidin-5-yl)phenyl]-N-[5-(2-methyl-1,3-thiazol-4-yl)pyridin-2-yl]cyclopropanecarboxamide], the IC50 in experiment [1] came out at 16 nM.
